Assay results from US8580794B2 (AbbVie Inc., priority 2009, dated 2013).

Target: GST-Bc1-2 (Homo sapiens, UniProt P10415)
Assay: Time Resolved-Fluorescence Resonance Energy Transfer (TR-FRET) Bcl-2 binding assay with F-Bak peptide probe
Conditions: GST-Bcl-2 1 nM, F-Bak probe 100 nM, Tb-anti-GST 1 nM; '<' = below limit of detection; read-out: TR-FRET Bcl-2 Binding Ki

Sequence of GST-Bc1-2 (P10415 whole entry): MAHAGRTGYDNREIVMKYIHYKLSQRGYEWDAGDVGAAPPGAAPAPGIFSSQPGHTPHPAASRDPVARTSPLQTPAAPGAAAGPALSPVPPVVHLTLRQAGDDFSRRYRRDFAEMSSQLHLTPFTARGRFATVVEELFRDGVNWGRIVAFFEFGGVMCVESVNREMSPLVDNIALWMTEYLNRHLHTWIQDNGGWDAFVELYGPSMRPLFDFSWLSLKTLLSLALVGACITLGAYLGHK

Structure (SMILES)	Ki [nM]
CC1(C)CCC(CN2CCN(c3ccc(C(=O)NS(=O)(=O)c4cnc(OCC5(F)CCOCC5)c(C#N)c4)c(Oc4cnc5[nH]ccc5c4)c3)CC2)=C(c2ccc(Cl)cc2)C1 [Example 56, 4-(4-{[2-(4-chlorophenyl)-4,4-dimethylcyclohex-1-en-1-yl]methyl}piperazin-1-yl)-N-({5-cyano-6-[(4-fluorotetrahydro-2H-pyran-4-yl)methoxy]pyridin-3-yl}sulfonyl)-2-(1H-pyrrolo[2,3-b]pyridin-5-yloxy)benzamide]	0.037
CC(=O)N1CC[C@@H](Nc2ccc(S(=O)(=O)NC(=O)c3ccc(N4CCN(CC5=C(c6ccc(Cl)cc6)CC(C)(C)CC5)CC4)cc3Oc3cnc4[nH]ccc4c3)cc2[N+](=O)[O-])C1 [Example 154, N-[(4-{[(3R)-1-acetylpyrrolidin-3-yl]amino}-3-nitrophenyl)sulfonyl]-4-(4-{[2-(4-chlorophenyl)-4,4-dimethylcyclohex-1-en-1-yl]methyl}piperazin-1-yl)-2-(1H-pyrrolo[2,3-b]pyridin-5-yloxy)benzamide]	< 0.01
CC1(C)CCC(CN2CCN(c3ccc(C(=O)NS(=O)(=O)c4ccc(OCC5CCOCC5)c([N+](=O)[O-])c4)c(Oc4cnc5[nH]ccc5c4)c3)CC2)=C(c2ccc(Cl)cc2)C1 [Example 24, 4-(4-{[2-(4-chlorophenyl)-4,4-dimethylcyclohex-1-en-1-yl]methyl}piperazin-1-yl)-N-{[3-nitro-4-(tetrahydro-2H-pyran-4-ylmethoxy)phenyl]sulfonyl}-2-(1H-pyrrolo[2,3-b]pyridin-5-yloxy)benzamide]	< 0.01
CC1(C)CCC(CN2CCN(c3ccc(C(=O)NS(=O)(=O)c4cnc(NC5CCN(C6CC6)CC5)c(Cl)c4)c(Oc4cnc5[nH]ccc5c4)c3)CC2)=C(c2ccc(Cl)cc2)C1 [Example 243, N-({5-chloro-6-[(1-cyclopropylpiperidin-4-yl)amino]pyridin-3-yl}sulfonyl)-4-(4-{[2-(4-chlorophenyl)-4,4-dimethylcyclohex-1-en-1-yl]methyl}piperazin-1-yl)-2-(1H-pyrrolo[2,3-b]pyridin-5-yloxy)benzamide]	0.546
O=C(NS(=O)(=O)c1cnc(OCC2(F)CCOCC2)c(Cl)c1)c1ccc(N2CCC(F)(Cc3ccccc3-c3ccc(Cl)cc3)CC2)cc1Oc1cnc2[nH]ccc2c1 [Example 272, 4-{4-[(4′-chlorobiphenyl-2-yl)methyl]-4-fluoropiperidin-1-yl}-N-({5-chloro-6-[(4-fluorotetrahydro-2H-pyran-4-yl)methoxy]pyridin-3-yl}sulfonyl)-2-(1H-pyrrolo[2,3-b]pyridin-5-yloxy)benzamide]	0.031
CC1(C)CCC(CN2CCN(c3ccc(C(=O)NS(=O)(=O)c4ccc(OCC5CN(C6CC6)CCO5)c(Cl)c4)c(Oc4cnc5[nH]ccc5c4)c3)CC2)=C(c2ccc(Cl)cc2)C1 (centres unmarked) [Example 331, N-({3-chloro-4-[(4-cyclopropylmorpholin-2-yl)methoxy]phenyl}sulfonyl)-4-(4-{[2-(4-chlorophenyl)-4,4-dimethylcyclohex-1-en-1-yl]methyl}piperazin-1-yl)-2-(1H-pyrrolo[2,3-b]pyridin-5-yloxy)benzamide]	1.09
CC1(C)CC(c2ccc(Cl)cc2)=C(CN2CCN(c3ccc(C(=O)NS(=O)(=O)c4cnc(OCC5CCOCC5)c(Cl)c4)c(Oc4cnc5[nH]ccc5c4)c3)CC2)CO1 [Example 41, 4-(4-{[4-(4-chlorophenyl)-6,6-dimethyl-5,6-dihydro-2H-pyran-3-yl]methyl}piperazin-1-yl)-N-{[5-chloro-6-(tetrahydro-2H-pyran-4-ylmethoxy)pyridin-3-yl]sulfonyl}-2-(1H-pyrrolo[2,3-b]pyridin-5-yloxy)benzamide]	< 0.01
CC1(C)CCC(CN2CCN(c3ccc(C(=O)NS(=O)(=O)c4ccc(NCC5(N6CCOCC6)CCCCC5)c([N+](=O)[O-])c4)c(Oc4cnc5[nH]ccc5c4)c3)CC2)=C(c2ccc(Cl)cc2)C1 [Example 99, 4-(4-{[2-(4-chlorophenyl)-4,4-dimethylcyclohex-1-en-1-yl]methyl}piperazin-1-yl)-N-[(4-{[(1-morpholin-4-ylcyclohexyl)methyl]amino}-3-nitrophenyl)sulfonyl]-2-(1H-pyrrolo[2,3-b]pyridin-5-yloxy)benzamide]	0.233
CC1(C)CCC(CN2CCN(c3ccc(C(=O)NS(=O)(=O)c4ccc(NCC5COCCO5)c([N+](=O)[O-])c4)c(Oc4cnc5[nH]ccc5c4)c3)CC2)=C(c2ccc(Cl)cc2)C1 (centres unmarked) [Example 25, 4-(4-{[2-(4-chlorophenyl)-4,4-dimethylcyclohex-1-en-1-yl]methyl}piperazin-1-yl)-N-({4-[(1,4-dioxan-2-ylmethyl)amino]-3-nitrophenyl}sulfonyl)-2-(1H-pyrrolo[2,3-b]pyridin-5-yloxy)benzamide]	< 0.01
CC1(C)CCC(CN2CCN(c3ccc(C(=O)NS(=O)(=O)c4ccc(N[C@@H]5CCOC5)c([N+](=O)[O-])c4)c(Oc4cnc5[nH]ccc5c4)c3)CC2)=C(c2ccc(Cl)cc2)C1 [Example 238, 4-(4-{[2-(4-chlorophenyl)-4,4-dimethylcyclohex-1-en-1-yl]methyl}piperazin-1-yl)-N-({3-nitro-4-[(3R)-tetrahydrofuran-3-ylamino]phenyl}sulfonyl)-2-(1H-pyrrolo[2,3-b]pyridin-5-yloxy)benzamide]	< 0.01
CC1(C)CCC(CN2CCN(c3ccc(C(=O)NS(=O)(=O)c4cnc(NCC5(F)CCOCC5)c(Cl)c4)c(Oc4cnc5[nH]ccc5c4)c3)CC2)=C(c2ccc(Cl)cc2)C1 [Example 242, N-[(5-chloro-6-{[(4-fluorotetrahydro-2H-pyran-4-yl)methyl]amino}pyridin-3-yl)sulfonyl]-4-(4-{[2-(4-chlorophenyl)-4,4-dimethylcyclohex-1-en-1-yl]methyl}piperazin-1-yl)-2-(1H-pyrrolo[2,3-b]pyridin-5-yloxy)benzamide]	0.057
CC(C)N1CCC(Nc2ccc(S(=O)(=O)NC(=O)c3ccc(N4CCN(CC5=C(c6ccc(Cl)cc6)CC(C)(C)CC5)CC4)cc3Oc3cnc4[nH]ccc4c3)cc2[N+](=O)[O-])CC1 [Example 226, 4-(4-{[2-(4-chlorophenyl)-4,4-dimethylcyclohex-1-en-1-yl]methyl}piperazin-1-yl)-N-({4-[(1-isopropylpiperidin-4-yl)amino]-3-nitrophenyl}sulfonyl)-2-(1H-pyrrolo[2,3-b]pyridin-5-yloxy)benzamide]	0.139
CN(C)CC(=O)N1CCO[C@H](COc2ncc(S(=O)(=O)NC(=O)c3ccc(N4CCN(CC5=C(c6ccc(Cl)cc6)CC(C)(C)CC5)CC4)cc3Oc3cnc4[nH]ccc4c3)cc2Cl)C1 [Example 245, N-[(5-chloro-6-{[(2S)-4-(N,N-dimethylglycyl)morpholin-2-yl]methoxy}pyridin-3-yl)sulfonyl]-4-(4-{[2-(4-chlorophenyl)-4,4-dimethylcyclohex-1-en-1-yl]methyl}piperazin-1-yl)-2-(1H-pyrrolo[2,3-b]pyridin-5-yloxy)benzamide]	0.015
CO[C@H]1CC[C@H](CNc2ccc(S(=O)(=O)NC(=O)c3ccc(N4CCN(CC5=C(c6ccc(Cl)cc6)CC(C)(C)CC5)CC4)cc3Oc3cnc4[nH]ccc4c3)cc2[N+](=O)[O-])CC1 [Example 34, Trans-4-(4-{[2-(4-chlorophenyl)-4,4-dimethylcyclohex-1-en-1-yl]methyl}piperazin-1-yl)-N-[(4-{[(4-methoxycyclohexyl)methyl]amino}-3-nitrophenyl)sulfonyl]-2-(1H-pyrrolo[2,3-b]pyridin-5-yloxy)benzamide]	0.01
CC1(C)CCC(CN2CCN(c3ccc(C(=O)NS(=O)(=O)c4cnc(N[C@H]5CC[C@H](N6CCOCC6)CC5)c(C#N)c4)c(Oc4cnc5[nH]ccc5c4)c3)CC2)=C(c2ccc(Cl)cc2)C1 [Example 109, Trans-4-(4-{[2-(4-chlorophenyl)-4,4-dimethylcyclohex-1-en-1-yl]methyl}piperazin-1-yl)-N-({5-cyano-6-[(4-morpholin-4-ylcyclohexyl)amino]pyridin-3-yl}sulfonyl)-2-(1H-pyrrolo[2,3-b]pyridin-5-yloxy)benzamide]	0.127
CC1(C)CCC(CN2CCN(c3ccc(C(=O)NS(=O)(=O)c4ccc(OC[C@@H]5COCCO5)c([N+](=O)[O-])c4)c(Oc4cnc5[nH]ccc5c4)c3)CC2)=C(c2ccc(Cl)cc2)C1 [Example 28, 4-(4-{[2-(4-chlorophenyl)-4,4-dimethylcyclohex-1-en-1-yl]methyl}piperazin-1-yl)-N-({4-[(2S)-1,4-dioxan-2-ylmethoxy]-3-nitrophenyl}sulfonyl)-2-(1H-pyrrolo[2,3-b]pyridin-5-yloxy)benzamide]	< 0.01
CC1(C)CCC(CN2CCN(c3ccc(C(=O)NS(=O)(=O)c4ccc(NC5CCC6(CC5)OCCO6)c([N+](=O)[O-])c4)c(Oc4cnc5[nH]ccc5c4)c3)CC2)=C(c2ccc(Cl)cc2)C1 [Example 178, 4-(4-{[2-(4-chlorophenyl)-4,4-dimethylcyclohex-1-en-1-yl]methyl}piperazin-1-yl)-N-{[4-(1,4-dioxaspiro[4.5]dec-8-ylamino)-3-nitrophenyl]sulfonyl}-2-(1H-pyrrolo[2,3-b]pyridin-5-yloxy)benzamide]	0.076
CC1(C)CCC(c2ccc(Cl)cc2)=C(CN2CCN(c3ccc(C(=O)NS(=O)(=O)c4ccc(NCC5CCOCC5)c([N+](=O)[O-])c4)c(Oc4cnc5[nH]ccc5c4)c3)CC2)C1 [Example 75, 4-(4-{[2-(4-chlorophenyl)-5,5-dimethylcyclohex-1-en-1-yl]methyl}piperazin-1-yl)-N-({3-nitro-4-[(tetrahydro-2H-pyran-4-ylmethyl)amino]phenyl}sulfonyl)-2-(1H-pyrrolo[2,3-b]pyridin-5-yloxy)benzamide]	< 0.01

Same assay, conditions: TR-FRET Bcl-2 Binding Ki

Structure (SMILES)	Ki [nM]
CN1CCC(Nc2ccc(S(=O)(=O)NC(=O)c3ccc(N4CCN(CC5=C(c6ccc(Cl)cc6)CC(C)(C)CC5)CC4)cc3Oc3ccc4[nH]ccc4c3)cc2[N+](=O)[O-])CC1 [Example 90, 4-(4-{[2-(4-chlorophenyl)-4,4-dimethylcyclohex-1-en-1-yl]methyl}piperazin-1-yl)-2-(1H-indol-5-yloxy)-N-({4-[(1-methylpiperidin-4-yl)amino]-3-nitrophenyl}sulfonyl)benzamide]	0.013

Same assay, conditions: read-out: Bcl-2 FRET ki

Structure (SMILES)	Ki [nM]
CN1CCC(Nc2ccc(S(=O)(=O)NC(=O)c3ccc(N4CCN(CC5=C(c6ccc(Cl)cc6)CC(C)(C)CC5)CC4)cc3Oc3ccc4[nH]ccc4c3)cc2[N+](=O)[O-])CC1 [Example 90, 4-(4-{[2-(4-chlorophenyl)-4,4-dimethylcyclohex-1-en-1-yl]methyl}piperazin-1-yl)-2-(1H-indol-5-yloxy)-N-({4-[(1-methylpiperidin-4-yl)amino]-3-nitrophenyl}sulfonyl)benzamide]	0.013
